# Laboratory results taken from US8143212B2 (Vicuron Pharmaceuticals Inc., priority 2002, dated 2012).
# What was measured:
# [1] = system: S. aureus; experiment: Murine thigh-infection model (time kill, dosing regimen, PK/PD; Tables 31, 32); conditions: for 1 log kill mg/kg / 2 log kill mg/kg: total dose over 6 days;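 for all read-outs here: mouse thigh infection, bacterial counts per thigh after therapy, dose-response curves fitted with a maximum effect model to give static and 1 or 2 log kill exposures, mean of 4 thighs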
# Protocol: The murine thigh-infection model was used for all organisms throughout the various studies. In this well-established model, approximately 10^6 Cfu of the study organisms are injected into one or both thighs (in 0.1 ml) two hours before starting therapy. The number of organisms in the thigh at the start of therapy in the following studies varied from 10^7.15-7.59 cfu/thigh.
# Each point represents the mean of 4 thighs. Five dose levels, ranging 16-fold were used. The dose levels used in the study against S. aureus ranged from 5 to 80 mg/kg.
# In these studies, multiple dosing regimens varying the dose and dosage interval were administered intraperitoneally in 0.2 ml volumes to groups of mice for 144 h (6 days). The dosing intervals chosen were 12, 24, 36, and 72 hours. Five different doses (two-fold increases) were used. Study against S. aureus utilized total dose (mg/kg/6d) levels ranging from 30 to 480 mg/kg/6d. […] Each point represents the mean of 4 thighs.
# Each of the dose-response curves was also mathematically characterized using a maximum effect model. […] From these parameters we could then calculate the dose required to produce a net bacteriostatic effect over the 144 hour treatment period as well as the doses necessary to produce a 1 and 2 log-reduction in organism burden.
# We determined which PK/PD parameter correlated best with efficacy by relating the number of bacteria in thigh at the end of 144 hours of therapy with [1] the peak/MIC ratio, [2] the AUC/MIC ratio, and [3] the percentage of the dosing interval that serum levels exceed the MIC for each of the dosage regimens studied. The PK/PD parameter values for those doses not specifically studied were extrapolated from the values of the nearest studied doses. […] Each point represents the mean of four thighs. […] The data illustrated in these figures were also analyzed by the same maximum dose-response model mentioned above, except that the different PK/PD parameters were used in place of the dose. The R^2 represents the coefficient of determination observed for the relationship between efficacy and each PK/PD parameter.
# [2] = Phase II SSTI trial: safety (adverse events); type: in vivo, human
# Protocol: Each patient who received at least one dose of study drug (ITT population) was evaluated for drug safety through monitoring of adverse events (AE), including abnormal clinical laboratory test results and vital signs. AE were rated by the investigator as to their severity (mild, moderate, severe, life-threatening), and by the relationship to the study drug (not related, unlikely related, possibly related, or probably related).
# [3] = system: Staph. aureus; experiment: ED50 against Staph. aureus murine septicaemias (Table 2); type: in vivo; conditions: Staphylococcus aureus, MSSA, sc, 10 min
smiles,measurement,setting,value
CN[C@H]1C(=O)N[C@@H]2Cc3ccc(cc3)Oc3cc4cc(c3O[C@@H]3O[C@H](C(=O)O)[C@@H](O)[C@H](O)[C@H]3NC(=O)CCCCCCCCC(C)C)Oc3ccc(cc3Cl)[C@@H](O)[C@@H]3NC(=O)[C@H](NC(=O)[C@@H]4NC(=O)[C@@H](NC2=O)c2cc(cc(O)c2Cl)Oc2cc1ccc2O)c1ccc(O)c(c1)-c1c(O[C@H]2O[C@H](CO)[C@@H](O)[C@H](O)[C@@H]2O)cc(O)cc1[C@@H](C(=O)NCCCN(C)C)NC3=O [Dalbavancin],Static Effect mg/kg/72 h,"[1]; SA25923, q 72 h regimen",160 mg/kg/72 h
same,1 log kill mg/kg,"[1]; SA29213, q 24 h",267 mg/kg
same,1 log kill mg/kg,"[1]; SA29213, q 36 h",36 mg/kg
same,2 log kill mg/kg,"[1]; SA29213, q 36 h",122 mg/kg
same,1 log kill mg/kg,"[1]; SA29213, q 72 h",31 mg/kg
same,2 log kill mg/kg,"[1]; SA29213, q 72 h",128 mg/kg
same,Static Effect f24AUC/MBC,"[1]; SA31005, q 24 h regimen",242
same,Static Effect f24AUC/MIC,"[1]; SA31005, q 24 h regimen",483
same,Static Effect mg/kg/24 h,"[1]; SA31005, q 24 h regimen",49.3 mg/kg/24 h
same,1 Log Kill f24AUC/MBC,"[1]; SA31005, q 72 h regimen",163
same,1 Log Kill f24AUC/MIC,"[1]; SA31005, q 72 h regimen",325
same,1 Log Kill mg/kg/24 h,"[1]; SA31005, q 72 h regimen",94.6 mg/kg/24 h
same,2 Log Kill f24AUC/MBC,"[1]; SA31005, q 72 h regimen",217
same,2 Log Kill f24AUC/MIC,"[1]; SA31005, q 72 h regimen",364
same,2 Log Kill mg/kg/24 h,"[1]; SA31005, q 72 h regimen",127 mg/kg/24 h
same,Static Effect f24AUC/MBC,"[1]; SA31005, q 72 h regimen",112
same,Static Effect f24AUC/MIC,"[1]; SA31005, q 72 h regimen",223
same,Static Effect mg/kg/72 h,"[1]; SA31005, q 72 h regimen",67.7 mg/kg/72 h
same,1 Log Kill f24AUC/MBC,"[1]; SA33591, q 24 h regimen",58.3
same,1 Log Kill f24AUC/MIC,"[1]; SA33591, q 24 h regimen",121
same,1 Log Kill mg/kg/24 h,"[1]; SA33591, q 24 h regimen",27.7 mg/kg/24 h
same,2 Log Kill f24AUC/MBC,"[1]; SA33591, q 24 h regimen",74.3
same,2 Log Kill f24AUC/MIC,"[1]; SA33591, q 24 h regimen",157
same,2 Log Kill mg/kg/24 h,"[1]; SA33591, q 24 h regimen",33.5 mg/kg/24 h
same,Static Effect f24AUC/MBC,"[1]; SA33591, q 24 h regimen",46
same,Static Effect f24AUC/MIC,"[1]; SA33591, q 24 h regimen",96.2
same,Static Effect mg/kg/24 h,"[1]; SA33591, q 24 h regimen",22.3 mg/kg/24 h
same,1 Log Kill f24AUC/MBC,"[1]; SA33591, q 72 h regimen",76.6
same,1 Log Kill f24AUC/MIC,"[1]; SA33591, q 72 h regimen",160
same,1 Log Kill mg/kg/24 h,"[1]; SA33591, q 72 h regimen",93 mg/kg/24 h
same,2 Log Kill f24AUC/MBC,"[1]; SA33591, q 72 h regimen",94
same,2 Log Kill f24AUC/MIC,"[1]; SA33591, q 72 h regimen",195
same,2 Log Kill mg/kg/24 h,"[1]; SA33591, q 72 h regimen",114 mg/kg/24 h
same,Static Effect f24AUC/MBC,"[1]; SA33591, q 72 h regimen",59
same,Static Effect f24AUC/MIC,"[1]; SA33591, q 72 h regimen",123
same,Static Effect mg/kg/72 h,"[1]; SA33591, q 72 h regimen",74 mg/kg/72 h
same,1 Log Kill f24AUC/MBC,"[1]; SA307109, q 72 h regimen",12.9
same,1 Log Kill f24AUC/MIC,"[1]; SA307109, q 72 h regimen",108
same,1 Log Kill mg/kg/24 h,"[1]; SA307109, q 72 h regimen",34 mg/kg/24 h
same,2 Log Kill f24AUC/MBC,"[1]; SA307109, q 72 h regimen",14.6
same,2 Log Kill f24AUC/MIC,"[1]; SA307109, q 72 h regimen",121
same,2 Log Kill mg/kg/24 h,"[1]; SA307109, q 72 h regimen",37 mg/kg/24 h
same,Static Effect f24AUC/MBC,"[1]; SA307109, q 72 h regimen",11.3
same,Static Effect f24AUC/MIC,"[1]; SA307109, q 72 h regimen",94
same,Static Effect mg/kg/72 h,"[1]; SA307109, q 72 h regimen",31 mg/kg/72 h
same,1 Log Kill f24AUC/MBC,"[1]; SA Smith, q 24 h regimen",119
same,1 Log Kill f24AUC/MIC,"[1]; SA Smith, q 24 h regimen",248
same,1 Log Kill mg/kg/24 h,"[1]; SA Smith, q 24 h regimen",50.7 mg/kg/24 h
same,2 Log Kill f24AUC/MBC,"[1]; SA Smith, q 24 h regimen",173
same,2 Log Kill f24AUC/MIC,"[1]; SA Smith, q 24 h regimen",361
same,2 Log Kill mg/kg/24 h,"[1]; SA Smith, q 24 h regimen",73.5 mg/kg/24 h
same,Static Effect f24AUC/MBC,"[1]; SA Smith, q 24 h regimen",75
same,Static Effect f24AUC/MIC,"[1]; SA Smith, q 24 h regimen",156
same,Static Effect mg/kg/24 h,"[1]; SA Smith, q 24 h regimen",33.5 mg/kg/24 h
same,1 Log Kill f24AUC/MBC,"[1]; SA Smith, q 72 h regimen",78.0
same,1 Log Kill f24AUC/MIC,"[1]; SA Smith, q 72 h regimen",163
same,1 Log Kill mg/kg/24 h,"[1]; SA Smith, q 72 h regimen",95 mg/kg/24 h
same,2 Log Kill f24AUC/MBC,"[1]; SA Smith, q 72 h regimen",22
same,2 Log Kill f24AUC/MIC,"[1]; SA Smith, q 72 h regimen",254
same,2 Log Kill mg/kg/24 h,"[1]; SA Smith, q 72 h regimen",148 mg/kg/24 h
same,Static Effect f24AUC/MBC,"[1]; SA Smith, q 72 h regimen",46.1
same,Static Effect f24AUC/MIC,"[1]; SA Smith, q 72 h regimen",96
same,Static Effect mg/kg/72 h,"[1]; SA Smith, q 72 h regimen",59 mg/kg/72 h
same,drop in cfu,"[1]; all strains, 6 day study",> 4 log10
same,free drug 24 h AUC/MIC associated with a static effect,[1]; every 24 h dosing,265±143
same,free drug 24 h AUC/MIC associated with a static effect,[1]; every 72 h dosing,160±67
same,free drug AUC/MIC required for efficacy,[1]; over the 6 days,~1000
same,extent of killing,"[1]; single doses, highest doses studied",> 2 log
same,≧1 AE possibly/probably related to treatment,[2]; Single-dose dalbavancin (N = 20),55%
same,≧1 AE possibly/probably related to treatment,[2]; Two-dose dalbavancin (N = 21),48%
same,AE leading to discontinuation of study medication,"[2]; human, in vivo",0%
same,clinically significant hepatotoxicity or nephrotoxicity,[2]; in vivo,no evidence
same,premature discontinuation of treatment due to an AE,[2]; in vivo,No dalbavancin-treated patient discontinued treatment prematurely
same,serious adverse events related to study drug treatment,[2]; in vivo,no serious adverse events
same,ED50,[3],0.05 mg/kg
